# Test system: 966289-007-R4-J1-PDC complex spheroid viability
# Test: Anticancer human tumor 966289-007-R4-J1-PDC patient-derived pancreatic adenocarcinoma cell line growth inhibition [RAS]
# Conditions: for IC50: curve of first compound; for viability, T/C: stronger effect = lower value
# How it was run: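 Tumour cells grown as complex spheroids with HUVEC endothelial cells and mesenchymal stem cells, treated with RAS pathway inhibitor combinations. Each agent spans half-log steps from near clinical Cmax, or 10 microM where Cmax is unknown.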
# 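Further: spheroids exposed to agents for one week before readout.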
# 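Wherever viability, T/C is given: percent viability relative to DMSO vehicle control wells as 100%.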
structure (smiles),measurement,setting,value
CC(C)n1nc(-c2ccc3oc(N)nc3c2)c2c(N)ncnc21 + C=CC(=O)N1CCN(c2nc(OCC3CCCN3C)nc3c(F)c(-c4nc(N)cc(C)c4C(F)(F)F)c(Cl)cc23)C(C)C1,IC50,second compound 0.00316 µM,0.0363 µM
same,IC50,second compound 0.01 µM,0.0329 µM
same,IC50,second compound 0.0316 µM,0.0437 µM
same,IC50,second compound 0.1 µM,0.0346 µM
same,IC50,second compound 0.316 µM,0.0515 µM
same,IC50,second compound 1 µM,0.0292 µM
same,"viability, T/C","second compound 0.00316 µM, first compound 0.000316 µM",116%
same,"viability, T/C","second compound 0.00316 µM, first compound 0.001 µM",83.6%
same,"viability, T/C","second compound 0.00316 µM, first compound 0.00316 µM",111%
same,"viability, T/C","second compound 0.00316 µM, first compound 0.01 µM",105%
same,"viability, T/C","second compound 0.00316 µM, first compound 0.0316 µM",54.5%
same,"viability, T/C","second compound 0.00316 µM, first compound 0.1 µM",17.7%
same,"viability, T/C","second compound 0.01 µM, first compound 0.000316 µM",110%
same,"viability, T/C","second compound 0.01 µM, first compound 0.001 µM",108%
same,"viability, T/C","second compound 0.01 µM, first compound 0.00316 µM",112%
same,"viability, T/C","second compound 0.01 µM, first compound 0.01 µM",94.2%
same,"viability, T/C","second compound 0.01 µM, first compound 0.0316 µM",51.5%
same,"viability, T/C","second compound 0.01 µM, first compound 0.1 µM",19.6%
same,"viability, T/C","second compound 0.0316 µM, first compound 0.000316 µM",123%
same,"viability, T/C","second compound 0.0316 µM, first compound 0.001 µM",113%
same,"viability, T/C","second compound 0.0316 µM, first compound 0.00316 µM",121%
same,"viability, T/C","second compound 0.0316 µM, first compound 0.01 µM",101%
same,"viability, T/C","second compound 0.0316 µM, first compound 0.0316 µM",62.5%
same,"viability, T/C","second compound 0.0316 µM, first compound 0.1 µM",18.9%
same,"viability, T/C","second compound 0.1 µM, first compound 0.000316 µM",103%
same,"viability, T/C","second compound 0.1 µM, first compound 0.001 µM",97.3%
same,"viability, T/C","second compound 0.1 µM, first compound 0.00316 µM",106%
same,"viability, T/C","second compound 0.1 µM, first compound 0.01 µM",106%
same,"viability, T/C","second compound 0.1 µM, first compound 0.0316 µM",52.4%
same,"viability, T/C","second compound 0.1 µM, first compound 0.1 µM",21.1%
same,"viability, T/C","second compound 0.316 µM, first compound 0.000316 µM",103%
same,"viability, T/C","second compound 0.316 µM, first compound 0.001 µM",82.2%
same,"viability, T/C","second compound 0.316 µM, first compound 0.00316 µM",132%
same,"viability, T/C","second compound 0.316 µM, first compound 0.01 µM",116%
same,"viability, T/C","second compound 0.316 µM, first compound 0.0316 µM",68.4%
same,"viability, T/C","second compound 0.316 µM, first compound 0.1 µM",24.9%
same,"viability, T/C","second compound 1 µM, first compound 0.000316 µM",92.5%
same,"viability, T/C","second compound 1 µM, first compound 0.001 µM",102%
same,"viability, T/C","second compound 1 µM, first compound 0.00316 µM",111%
same,"viability, T/C","second compound 1 µM, first compound 0.01 µM",91.9%
same,"viability, T/C","second compound 1 µM, first compound 0.0316 µM",47.1%
same,"viability, T/C","second compound 1 µM, first compound 0.1 µM",20.3%
Nc1ccn(C2OC(CO)C(O)C2(F)F)c(=O)n1 (configuration not stated) + CCn1c(-c2cc(N3CCN(C)CC3)cnc2C(C)OC)c2c3cc(ccc31)-c1csc(n1)CC(NC(=O)C1CC1C)C(=O)N1CCCC(N1)C(=O)OCC(C)(C)C2,IC50,second compound 0.000949 µM,0.00604 µM
same,IC50,second compound 0.003 µM,0.0063 µM
same,IC50,second compound 0.00949 µM,0.0062 µM
same,IC50,second compound 0.03 µM,0.00634 µM
same,IC50,second compound 0.0949 µM,0.00696 µM
same,IC50,second compound 0.3 µM,0.0125 µM
same,"viability, T/C","second compound 0.000949 µM, first compound 0.00316 µM",97.8%
same,"viability, T/C","second compound 0.000949 µM, first compound 0.01 µM",12.9%
same,"viability, T/C","second compound 0.000949 µM, first compound 0.0316 µM",1.26%
same,"viability, T/C","second compound 0.000949 µM, first compound 0.1 µM",0.95%
same,"viability, T/C","second compound 0.000949 µM, first compound 0.316 µM",1.14%
same,"viability, T/C","second compound 0.000949 µM, first compound 1 µM",1.37%
same,"viability, T/C","second compound 0.003 µM, first compound 0.00316 µM",102%
same,"viability, T/C","second compound 0.003 µM, first compound 0.01 µM",14.8%
same,"viability, T/C","second compound 0.003 µM, first compound 0.0316 µM",1.26%
same,"viability, T/C","second compound 0.003 µM, first compound 0.1 µM",1.21%
same,"viability, T/C","second compound 0.003 µM, first compound 0.316 µM",1.3%
same,"viability, T/C","second compound 0.003 µM, first compound 1 µM",1.36%
same,"viability, T/C","second compound 0.00949 µM, first compound 0.00316 µM",101%
same,"viability, T/C","second compound 0.00949 µM, first compound 0.01 µM",13.7%
same,"viability, T/C","second compound 0.00949 µM, first compound 0.0316 µM",1.25%
same,"viability, T/C","second compound 0.00949 µM, first compound 0.1 µM",1.19%
same,"viability, T/C","second compound 0.00949 µM, first compound 0.316 µM",1.09%
same,"viability, T/C","second compound 0.00949 µM, first compound 1 µM",1.04%
same,"viability, T/C","second compound 0.03 µM, first compound 0.00316 µM",97%
same,"viability, T/C","second compound 0.03 µM, first compound 0.01 µM",19.3%
same,"viability, T/C","second compound 0.03 µM, first compound 0.0316 µM",1.26%
same,"viability, T/C","second compound 0.03 µM, first compound 0.1 µM",1.2%
same,"viability, T/C","second compound 0.03 µM, first compound 0.316 µM",1.06%
same,"viability, T/C","second compound 0.03 µM, first compound 1 µM",1.12%
same,"viability, T/C","second compound 0.0949 µM, first compound 0.00316 µM",97.2%
same,"viability, T/C","second compound 0.0949 µM, first compound 0.01 µM",28.2%
same,"viability, T/C","second compound 0.0949 µM, first compound 0.0316 µM",1.31%
same,"viability, T/C","second compound 0.0949 µM, first compound 0.1 µM",1.32%
same,"viability, T/C","second compound 0.0949 µM, first compound 0.316 µM",1.4%
same,"viability, T/C","second compound 0.0949 µM, first compound 1 µM",1.29%
same,"viability, T/C","second compound 0.3 µM, first compound 0.00316 µM",97.6%
same,"viability, T/C","second compound 0.3 µM, first compound 0.01 µM",61.5%
same,"viability, T/C","second compound 0.3 µM, first compound 0.0316 µM",2.02%
same,"viability, T/C","second compound 0.3 µM, first compound 0.1 µM",1.27%
same,"viability, T/C","second compound 0.3 µM, first compound 0.316 µM",1.51%
same,"viability, T/C","second compound 0.3 µM, first compound 1 µM",1.21%
CC1(C)CCC(Nc2ncc(C(F)(F)F)c(-c3c[nH]c4c(P(C)(C)=O)c(C#N)ccc34)n2)CN1 (configuration not stated),"viability, T/C",compound 0.03 µM,15.1% [middle of 4 runs]
same,"viability, T/C",compound 0.0949 µM,10.5% [middle of 4 runs]
same,"viability, T/C",compound 0.3 µM,8.72% [middle of 4 runs]
